Experimental data as given in US9661853B2, “Molecules having pesticidal utility, and intermediates, compositions, and processes, related thereto” (Dow AgroSciences LLC, priority 2015, dated 2017).

What was measured:
[1] = tested on: Beet Armyworm (Spodoptera exigua, LAPHEG); assay: Bioassay on Beet Armyworm (BAW), 128-well diet tray assay; format: in vivo; settings: 168 h, 50 μg/cm^2 on artificial diet, second instar larvae, 25° C., five to seven days, average of eight wells, read-out: BAW % Control (or Mortality) rating
Experimental: (§1) Bioassays on Beet Armyworm (Spodoptera exigua, LAPHEG) (“BAW”) and Cabbage Looper (Trichoplusia ni, TRIPNI) (“CL”)
(§2) Certain molecules disclosed in this document were tested against BAW and CL using procedures described in the following examples. In the reporting of the results, the “BAW & CL Rating Table” was used (See Table Section).
Bioassays on BAW were conducted using a 128-well diet tray assay. One to five second instar BAW larvae were placed in each well (3 mL) of the diet tray that had been previously filled with 1 mL of artificial diet to which 50 μg/cm^2 of the test molecule (dissolved in 50 μL of 90:10 acetone-water mixture) had been applied (to each of eight wells) and then allowed to dry. Trays were covered with a clear self-adhesive cover, vented to allow gas exchange, and held at 25° C., 14:10 light-dark for five to seven days. Percent mortality was recorded for the larvae in each well; activity in the eight wells was then averaged. The results are indicated in the table entitled “Table ABC: Biological Results” (See Table Section).

[2] = tested on: Cabbage Looper (Trichoplusia ni, TRIPNI); assay: Bioassay on Cabbage Looper (CL), 128-well diet tray assay; format: in vivo; settings: 168 h, 50 μg/cm^2 on artificial diet, second instar larvae, 25° C., five to seven days, average of eight wells, read-out: CL % Control (or Mortality) rating
Experimental: as §1, §2
Bioassays on CL were conducted using a 128-well diet tray assay. One to five second instar CL larvae were placed in each well (3 mL) of the diet tray that had been previously filled with 1 mL of artificial diet to which 50 μg/cm^2 of the test molecule (dissolved in 50 μL of 90:10 acetone-water mixture) had been applied (to each of eight wells) and then allowed to dry. Trays were covered with a clear self-adhesive cover, vented to allow gas exchange, and held at 25° C., 14:10 light-dark for five to seven days. Percent mortality was recorded for the larvae in each well; activity in the eight wells was then averaged. The results are indicated in the table entitled “Table ABC: Biological Results” (See Table Section).

SMILES | melting point [°C] | mortality at 50 µg/cm2 [1] [%] | mortality at 50 µg/cm2 [2] [%]
Cc1ccc(C(C)C)c(N2C(=O)CS/C2=N\C(=O)Nc2ccc(CNc3ncn(-c4ccc(OC(F)(F)F)cc4)n3)cc2F)c1 | 236 to 238 | – | –
CCCc1ccc(C)cc1N1C(=O)CS/C1=N\C(=O)Nc1ccc(CN(C)c2ncn(-c3ccc(OC(F)(F)F)cc3)n2)cc1F | 174 to 176 | – | –
COCc1ccc(C)cc1N1C(=O)CS/C1=N\C(=O)Nc1ccc(CNc2ncn(-c3ccc(OC(F)(F)F)cc3)n2)cc1F | 205 to 207 | – | –
Cc1ccc(C(C)C)c(N2C(=O)CS/C2=N\C(=O)Nc2ccc(NCc3ncn(-c4ccc(OC(F)(F)F)cc4)n3)cc2)c1 [F28, (Z)-1-(3-(2-isopropyl-5-methylphenyl)-4-oxothiazolidin-2-ylidene)-3-(4-(((1-(4-(trifluoromethoxy)phenyl)-1H-1,2,4-triazol-3-yl)methyl)amino)phenyl)urea] | – | 50 to 100 | 50 to 100
CCCc1ccc(C)cc1N1C(=O)CS/C1=N\C(=O)Nc1ccc(NCc2ncn(-c3ccc(OC(F)(F)F)cc3)n2)cc1 [F29, (Z)-1-(3-(5-Methyl-2-propylphenyl)-4-oxothiazolidin-2-ylidene)-3-(4-(((1-(4-(trifluoromethoxy)phenyl)-1H-1,2,4-triazol-3-yl)methyl)amino)phenyl)urea] | – | 50 to 100 | 50 to 100
COCc1ccc(C)cc1N1C(=O)CS/C1=N\C(=O)Nc1ccc(NCc2ncn(-c3ccc(OC(F)(F)F)cc3)n2)cc1 [F30, (Z)-1-(3-(2-(Methoxymethyl)-5-methylphenyl)-4-oxothiazolidin-2-ylidene)-3-(4-(((1-(4-(trifluoromethoxy)phenyl)-1H-1,2,4-triazol-3-yl)methyl)amino)phenyl)urea] | – | 50 to 100 | 50 to 100
Cc1ccc(C(C)C)c(N2C(=O)CS/C2=N\C(=O)Nc2ccc(NCc3ncn(-c4ccc(OC(F)(F)F)cc4)n3)cc2F)c1 [F31, (Z)-1-(2-Fluoro-4-(((1-(4-(trifluoromethoxy)phenyl)-1H-1,2,4-triazol-3-yl)methyl)amino)phenyl)-3-(3-(2-isopropyl-5-methylphenyl)-4-oxothiazolidin-2-ylidene)urea] | – | 50 to 100 | 50 to 100
CCCc1ccc(C)cc1N1C(=O)CS/C1=N\C(=O)Nc1ccc(NCc2ncn(-c3ccc(OC(F)(F)F)cc3)n2)cc1F [F32, (Z)-1-(2-Fluoro-4-(((1-(4-(trifluoromethoxy)phenyl)-1H-1,2,4-triazol-3-yl)methyl)amino)phenyl)-3-(3-(5-methyl-2-propylphenyl)-4-oxothiazolidin-2-ylidene)urea] | – | 50 to 100 | 50 to 100
COCc1ccc(C)cc1N1C(=O)CS/C1=N\C(=O)Nc1ccc(NCc2ncn(-c3ccc(OC(F)(F)F)cc3)n2)cc1F [F33, (Z)-1-(2-Fluoro-4-(((1-(4-(trifluoromethoxy)phenyl)-1H-1,2,4-triazol-3-yl)methyl)amino)phenyl)-3-(3-(2-(methoxymethyl)-5-methylphenyl)-4-oxothiazolidin-2-ylidene)urea] | – | 50 to 100 | 50 to 100
Cc1ccc(C(C)C)c(N2C(=O)CS/C2=N\C(=O)Nc2ccc(NCc3ncn(-c4ccc(OC(F)(F)F)cc4)n3)c(F)c2)c1 [F34, (Z)-1-(3-Fluoro-4-(((1-(4-(trifluoromethoxy)phenyl)-1H-1,2,4-triazol-3-yl)methyl)amino)phenyl)-3-(3-(2-isopropyl-5-methylphenyl)-4-oxothiazolidin-2-ylidene)urea] | – | 50 to 100 | 50 to 100
CCCc1ccc(C)cc1N1C(=O)CS/C1=N\C(=O)Nc1ccc(NCc2ncn(-c3ccc(OC(F)(F)F)cc3)n2)c(F)c1 [F35, (Z)-1-(3-Fluoro-4-(((1-(4-(trifluoromethoxy)phenyl)-1H-1,2,4-triazol-3-yl)methyl)amino)phenyl)-3-(3-(5-methyl-2-propylphenyl)-4-oxothiazolidin-2-ylidene)urea] | – | 50 to 100 | 50 to 100
COCc1ccc(C)cc1N1C(=O)CS/C1=N\C(=O)Nc1ccc(NCc2ncn(-c3ccc(OC(F)(F)F)cc3)n2)c(F)c1 [F36, (Z)-1-(3-Fluoro-4-(((1-(4-(trifluoromethoxy)phenyl)-1H-1,2,4-triazol-3-yl)methyl)amino)phenyl)-3-(3-(2-(methoxymethyl)-5-methylphenyl)-4-oxothiazolidin-2-ylidene)urea] | – | 50 to 100 | 50 to 100
COc1cc(NC(=O)/N=C2\SCC(=O)N2c2cc(C)ccc2C(C)C)ccc1NCc1ncn(-c2ccc(OC(F)(F)F)cc2)n1 [F37, (Z)-1-(3-(2-Isopropyl-5-methylphenyl)-4-oxothiazolidin-2-ylidene)-3-(3-methoxy-4-(((1-(4-(trifluoromethoxy)phenyl)-1H-1,2,4-triazol-3-yl)methyl)amino)phenyl)urea] | – | 50 to 100 | 50 to 100
CCCc1ccc(C)cc1N1C(=O)CS/C1=N\C(=O)Nc1ccc(NCc2ncn(-c3ccc(OC(F)(F)F)cc3)n2)c(OC)c1 [F38, (Z)-1-(3-Methoxy-4-(((1-(4-(trifluoromethoxy)phenyl)-1H-1,2,4-triazol-3-yl)methyl)amino)phenyl)-3-(3-(5-methyl-2-propylphenyl)-4-oxothiazolidin-2-ylidene)urea] | – | 50 to 100 | 50 to 100
COCc1ccc(C)cc1N1C(=O)CS/C1=N\C(=O)Nc1ccc(NCc2ncn(-c3ccc(OC(F)(F)F)cc3)n2)c(OC)c1 [F39, (Z)-1-(3-Methoxy-4-(((1-(4-(trifluoromethoxy)phenyl)-1H-1,2,4-triazol-3-yl)methyl)amino)phenyl)-3-(3-(2-(methoxymethyl)-5-methylphenyl)-4-oxothiazolidin-2-ylidene)urea] | – | 50 to 100 | 50 to 100
Cc1ccc(C(C)C)c(N2C(=O)CS/C2=N\C(=O)Nc2ccc(NCc3ncn(-c4ccc(OC(F)(F)F)cc4)n3)cc2Cl)c1 [F40, (Z)-1-(2-Chloro-4-(((1-(4-(trifluoromethoxy)phenyl)-1H-1,2,4-triazol-3-yl)methyl)amino)phenyl)-3-(3-(2-isopropyl-5-methylphenyl)-4-oxothiazolidin-2-ylidene)urea] | – | 50 to 100 | 50 to 100
CCCc1ccc(C)cc1N1C(=O)CS/C1=N\C(=O)Nc1ccc(NCc2ncn(-c3ccc(OC(F)(F)F)cc3)n2)cc1Cl [F41, (Z)-1-(2-Chloro-4-(((1-(4-(trifluoromethoxy)phenyl)-1H-1,2,4-triazol-3-yl)methyl)amino)phenyl)-3-(3-(5-methyl-2-propylphenyl)-4-oxothiazolidin-2-ylidene)urea] | – | 50 to 100 | 50 to 100
COCc1ccc(C)cc1N1C(=O)CS/C1=N\C(=O)Nc1ccc(NCc2ncn(-c3ccc(OC(F)(F)F)cc3)n2)cc1Cl [F42, (Z)-1-(2-Chloro-4-(((1-(4-(trifluoromethoxy)phenyl)-1H-1,2,4-triazol-3-yl)methyl)amino)phenyl)-3-(3-(2-(methoxymethyl)-5-methylphenyl)-4-oxothiazolidin-2-ylidene)urea] | – | 50 to 100 | 50 to 100
Cc1ccc(C(C)C)c(N2C(=O)CS/C2=N\C(=O)Nc2ccc(NCc3ncn(-c4ccc(OC(F)(F)F)cc4)n3)c(Cl)c2)c1 [F43, (Z)-1-(3-Chloro-4-(((1-(4-(trifluoromethoxy)phenyl)-1H-1,2,4-triazol-3-yl)methyl)amino)phenyl)-3-(3-(2-isopropyl-5-methylphenyl)-4-oxothiazolidin-2-ylidene)urea] | – | 50 to 100 | 50 to 100
CCCc1ccc(C)cc1N1C(=O)CS/C1=N\C(=O)Nc1ccc(NCc2ncn(-c3ccc(OC(F)(F)F)cc3)n2)c(Cl)c1 [F44, (Z)-1-(3-Chloro-4-(((1-(4-(trifluoromethoxy)phenyl)-1H-1,2,4-triazol-3-yl)methyl)amino)phenyl)-3-(3-(5-methyl-2-propylphenyl)-4-oxothiazolidin-2-ylidene)urea] | – | 50 to 100 | 50 to 100
Cc1ccc(C(C)C)c(N2C(=O)CS/C2=N\C(=O)Nc2ccc(NCc3ncn(-c4ccc(OC(F)(F)F)cc4)n3)nc2)c1 [F46, (Z)-1-(3-(2-isopropyl-5-methylphenyl)-4-oxothiazolidin-2-ylidene)-3-(6-(((1-(4-(trifluoromethoxy)phenyl)-1H-1,2,4-triazol-3-yl)methyl)amino)pyridin-3-yl)urea] | – | 50 to 100 | 50 to 100
Cc1ccc(C(C)C)c(N2C(=O)CS/C2=N\C(=O)Nc2ccc(NCc3ncn(-c4ccc(OC(F)(F)F)cc4)n3)cn2)c1 [F47, (Z)-1-(3-(2-isopropyl-5-methylphenyl)-4-oxothiazolidin-2-ylidene)-3-(5-(((1-(4-(trifluoromethoxy)phenyl)-1H-1,2,4-triazol-3-yl)methyl)amino)pyridin-2-yl)urea] | – | 50 to 100 | 50 to 100
